Source: US5523403A, “Tropone-substituted phenyloxazolidinone antibacterial agents” (The Upjohn Company, priority 1995, dated 1996)
Values after ≈ are worked out from the molar mass of the structure shown.

Columns and labels:
[1] = tested on: Staphylococcus aureus UC ® 9213; test: in vitro antibacterial activity, Minimum Inhibitory Concentration, Staphylococcus aureus; conditions: for MIC: Staphylococcus aureus, UC9213, read-out: Minimum Inhibitory Concentration
[2] = tested on: Streptococcus pyogenes UC ® 152; test: in vitro antibacterial activity, Minimum Inhibitory Concentration, Streptococcus pyogenes; conditions: for MIC: Streptococcus pyogenes, UC152, read-out: Minimum Inhibitory Concentration

Structure (SMILES)	MIC [1]	MIC [2]	Minimum Inhibitory Concentration ([1]; in vitro, Staphylococcus aureus UC ® 9213)	Minimum Inhibitory Concentration ([2]; in vitro, Streptococcus pyogenes UC ® 152)
CCN(CC)c1ccc(-c2ccc(N3CC(CNC(C)=O)OC3=O)cc2)ccc1=O (racemic) [Compound 2, (±)-N[[3-[4-(4-diethylamino-5-oxo-1,3,6-cycloheptatrien-1-yl)phenyl]-2-oxo-5-oxazolidinyl]methyl]-acetamide]	4 µg/mL (≈ 9.77 µM)	1 µg/mL (≈ 2.44 µM)	–	–
CC(=O)NCC1CN(c2ccc(-c3ccc(NCc4ccccc4)c(=O)cc3)cc2)C(=O)O1 (racemic) [Compound 3, (±)-Acetamide, N-[[2-oxo-3-[4-[5-oxo-4-[(phenylmethyl)amino]-1,3,6-cycloheptatrien-1-yl]phenyl]-5-oxazolidinyl]methyl]]	> 64 µg/mL	4 µg/mL (≈ 9.02 µM)	–	–
CC(=O)NCC1CN(c2ccc(-c3ccc(N4CCOCC4)c(=O)cc3)cc2)C(=O)O1 (racemic) [Compound 5, (±)-N-[[3-[4-[4-(4-morpholino)-5-oxo1,3,6-cycloheptatrien-1-yl]phenyl]2oxo5-oxazolidinyl]methyl]-acetamide]	2 µg/mL (≈ 4.72 µM)	0.5 µg/mL (≈ 1.18 µM)	–	–
CC(=O)NCC1CN(c2ccc(-c3ccc(N4CCN(C=O)CC4)c(=O)cc3)cc2)C(=O)O1 (racemic) [Compound 7, (±)-N-[[3-[4-[4-(4-formyl-1-piperazinyl)-5-oxo-1,3,6-cycloheptatrien-1-yl]phenyl]-2-oxo-5-oxazolidinyl]methyl]-acetamide]	4 µg/mL (≈ 8.88 µM)	0.5 µg/mL (≈ 1.11 µM)	–	–
CC(=O)NCC1CN(c2ccc(-c3ccc(N4CCCC4)c(=O)cc3)cc2)C(=O)O1 (racemic) [Compound 9, (±)-N-[[3-[4-[4-(1-pyrrolidinyl)-5-oxo-1,3,6-cycloheptatrien-1-yl]]phenyl]-2-oxo-5-oxazolidinyl]methyl]-acetamide]	4 µg/mL (≈ 9.82 µM)	1 µg/mL (≈ 2.45 µM)	–	–
CC(=O)NCC1CN(c2ccc(-c3ccc(N4CCN(C)CC4)c(=O)cc3)cc2)C(=O)O1 (racemic) [Compound 10, (±)-N-[[3-[4-[4-(4-methyl-1-piperazinyl)-5-oxo-1,3,6-cycloheptatrien-1-yl]phenyl]-2-oxo-5-oxazolidinyl]methyl]-acetamide]	2 µg/mL (≈ 4.58 µM)	0.12 µg/mL (≈ 0.275 µM)	–	–
CC(=O)NCC1CN(c2ccc(-c3ccc(N4CCNCC4)c(=O)cc3)cc2)C(=O)O1 (racemic) [Compound 12, (±)-N-[[3-[4-[4-(1-piperazinyl)-5-oxo-1,3,6-cycloheptatrien-1-yl]phenyl]-2-oxo-5-oxazolidinyl]methyl]-acetamide]	8 µg/mL (≈ 18.9 µM)	0.25 µg/mL (≈ 0.592 µM)	–	–
CC(=O)NCC1CN(c2ccc(-c3ccc(N4C[C@@H](C)N[C@@H](C)C4)c(=O)cc3)cc2)C(=O)O1 (mixture of isomers) [Compound 14, (±)-N-[[3-[4-[4-(cis-3,5-dimethyl-1-piperazinyl)-5-oxo-1,3,6-cycloheptatrien-1-yl]phenyl]-2-oxo5-oxazolidinyl]methyl]-acetamide]	8 µg/mL (≈ 17.8 µM)	0.5 µg/mL (≈ 1.11 µM)	–	–
CC(=O)NCC1CN(c2ccc(-c3ccc(N4CCCCC4)c(=O)cc3)cc2)C(=O)O1 (racemic) [Compound 15, (±)-N-[[3-[4-[4-(1-piperidinyl)-5-oxo-1,3,6-cycloheptatrien-1-yl]phenyl]-2-oxo-5-oxazolidinyl]methyl]-acetamide]	2 µg/mL (≈ 4.74 µM)	1 µg/mL (≈ 2.37 µM)	–	–
COc1ccc(-c2ccc(N3CC(CNC(C)=O)OC3=O)cc2F)ccc1=O (racemic) [Compound 16, (±)-N-[[3-[3-fluoro-4-(4-methoxy-5-oxo-1,3,6-cycloheptatrien-1-yl)phenyl]-2-oxo-5-oxazolidinyl]methyl]-acetamide]	1 µg/mL (≈ 2.59 µM)	0.25 µg/mL (≈ 0.647 µM)	–	–
CC(=O)NCC1CN(c2ccc(-c3ccc(N4CCNC(C)C4)c(=O)cc3)cc2)C(=O)O1 (racemic) [Compound 17, (±)-N-[[3-[4-[4-(3-methyl-1-piperazinyl)-5-oxo-1,3,6-cycloheptatrien-1-yl]phenyl]2-oxo-5-oxazolidinyl]methyl]-acetamide]	8 µg/mL (≈ 18.3 µM)	0.25 µg/mL (≈ 0.573 µM)	–	–
COc1cccc(-c2ccc(N3CC(CNC(C)=O)OC3=O)cc2)cc1=O (racemic) [Compound 20, (±)-N-[[3-[4-[4-methoxy-3-oxo-1,4,6-cycloheptatrien-1-yl)phenyl]-2-oxo-5-oxazolidinyl]methyl]-acetamide]	4 µg/mL (≈ 10.9 µM)	0.5 µg/mL (≈ 1.36 µM)	–	–
COc1cc(-c2ccc(N3CC(CNC(C)=O)OC3=O)cc2)cccc1=O (racemic) [Compound 21, (±)-N-[[3-[4-(6-methoxy-5-oxo-1,3,6-cycloheptatrien-1-yl]phenyl]-2-oxo5-oxazolidinyl]methyl]-acetamide]	64 µg/mL (≈ 174 µM)	8 µg/mL (≈ 21.7 µM)	–	–
C=CCNc1cccc(-c2ccc(N3CC(CNC(C)=O)OC3=O)cc2)cc1=O (racemic) [Compound 26, (±)-N[[3-[4-[4-(2-propenylamino)-3-oxo1,4,6-cycloheptatrien-1-yl]phenyl-2oxo-5-oxazolidinyl]methyl]-acetamide]	2 µg/mL (≈ 5.08 µM)	1 µg/mL (≈ 2.54 µM)	–	–
CC(=O)NCC1CN(c2ccc(-c3cccc(N4CCOCC4)c(=O)c3)cc2)C(=O)O1 (racemic) [Compound 27, (±)-N-[]3-[4-4-(4-morpholinyl)-3-oxo-1,4,6-cycloheptatrien-1-yl]phenyl]-2-oxo-5-oxazolidinyl]methyl]-acetamide]	4 µg/mL (≈ 9.45 µM)	1 µg/mL (≈ 2.36 µM)	–	–
C#CCNc1cccc(-c2ccc(N3CC(CNC(C)=O)OC3=O)cc2)cc1=O (racemic) [Compound 29, (±)-N-[[3-[4-[4-(2-pyopynylamino)-3-oxo-1,4,6-cycloheptatrien-1-yl)phenyl]2-oxo-5-oxazolidinyl]methyl-acetamide]	2 µg/mL (≈ 5.11 µM)	0.5 µg/mL (≈ 1.28 µM)	–	–
COC(=O)CNc1ccc(-c2ccc(N3CC(CNC(C)=O)OC3=O)cc2)ccc1=O (racemic) [Compound 30, (±)-N-[[3-[4-[-[[(methoxycarbonyl)methyl]amino]-5-oxo-1,3,6cycloheptatrien-1-yl]phenyl]-2-oxo-5-oxazolidinyl]methyl]-acetamide]	–	–	4 µg/mL	1 µg/mL
C=CCOc1ccc(-c2ccc(N3CC(CNC(C)=O)OC3=O)cc2)ccc1=O (racemic) [Compound 33, (±)-N-[[3-[4-[4-(2-propenyloxy)5-oxo-1,3,6-cycloheptatrien-1-yl]phenyl]-2-oxo-5-oxazolidinyl)methyl]-acetamide]	4 µg/mL (≈ 10.1 µM)	1 µg/mL (≈ 2.54 µM)	–	–

Now from value to molecule, other results behind:

MIC [1]	MIC [2]	Structure (SMILES)	Minimum Inhibitory Concentration ([1]; in vitro, Staphylococcus aureus UC ® 9213)	Minimum Inhibitory Concentration ([2]; in vitro, Streptococcus pyogenes UC ® 152)
2 µg/mL (≈ 5.43 µM)	0.25 µg/mL (≈ 0.679 µM)	COc1ccc(-c2ccc(N3CC(CNC(C)=O)OC3=O)cc2)ccc1=O (racemic) [Compound 1, (±)-N[[3-[4-(4-methoxy-5-oxo-,1,3,6-cycloheptatrien-yl)phenyl]-2-oxazolidinyl]methyl-acetamide]	–	–
4 µg/mL (≈ 10.1 µM)	0.5 µg/mL (≈ 1.26 µM)	CC(=O)NCC1CN(c2ccc(-c3ccc(NCCO)c(=O)cc3)cc2)C(=O)O1 (racemic) [Compound 4, (±)-N-[[3-[4-[4-[(2-hydroxyethyl)amino]-5-oxo1,3,6-cycloheptatrien-1-yl]phenyl]-2oxo-5-oxazolidinyl]methyl-acetamide]	–	–
2 µg/mL (≈ 5.08 µM)	0.5 µg/mL (≈ 1.27 µM)	CC(=O)NCC1CN(c2ccc(-c3ccc(NC4CC4)c(=O)cc3)cc2)C(=O)O1 (racemic) [Compound 6, (±)-N-[[3-[4-(4-cyclopropylamino-5-oxo-1,3,6-cycloheptatrien-1-yl)phenyl]-2-oxo-5-oxazolidinyl]methyl]-acetamide]	–	–
2 µg/mL (≈ 5.08 µM)	0.5 µg/mL (≈ 1.27 µM)	C=CCNc1ccc(-c2ccc(N3CC(CNC(C)=O)OC3=O)cc2)ccc1=O (racemic) [Compound 8, (±)-N-[[3-[4-[4-(2-propenylamino)5-oxo-1,3,6-cycloheptatrien-1-yl]phenyl]-2-oxo-5-oxazolidinyl]methyl]-acetamide]	–	–
4 µg/mL (≈ 9.49 µM)	1 µg/mL (≈ 2.37 µM)	CC(=O)NCC1CN(c2ccc(-c3ccc(NC4CCCC4)c(=O)cc3)cc2)C(=O)O1 (racemic) [Compound 11, (±)-N-[[3-[4-(4-cyclopentylamino-5-oxo-1,3,6-cycloheptatrien-1-yl)phenyl]-2-oxo-5-oxazolidinyl]methyl]-acetamide]	–	–
2 µg/mL (≈ 4.88 µM)	0.5 µg/mL (≈ 1.22 µM)	CCCCNc1ccc(-c2ccc(N3CC(CNC(C)=O)OC3=O)cc2)ccc1=O (racemic) [Compound 13, (±)-N-[[3-[4-(4-butylamino-5-oxo-1,3,6-cycloheptatrien-1-yl)phenyl]-2-oxo-5-oxazolidinyl]methyl]-acetamide]	–	–
4 µg/mL (≈ 9.45 µM)	1 µg/mL (≈ 2.36 µM)	CC(=O)NCC1CN(c2ccc(-c3ccc(N4CCC(O)C4)c(=O)cc3)cc2)C(=O)O1 (racemic) [Compound 18, (±)-N-[[3-[4-[4-(3-hydroxy-1-pyrrolidinyl)-5-oxo-1,3,6-cycloheptatrien-1-yl]phenyl]-2-oxo-5oxazolidinyl]methyl]-acetamide]	–	–
4 µg/mL (≈ 10.5 µM)	0.5 µg/mL (≈ 1.31 µM)	CCOc1ccc(-c2ccc(N3CC(CNC(C)=O)OC3=O)cc2)ccc1=O (racemic) [Compound 22, (±)-N-[[3-[4-(4-ethoxy-5-oxo-1,3,6-cycloheptatrien-1-yl]phenyl]-2-oxo5-oxazolidinyl]methyl]-acetamide]	–	–
4 µg/mL (≈ 10.1 µM)	1 µg/mL (≈ 2.52 µM)	CC(=O)NCC1CN(c2ccc(-c3ccc(OC(C)C)c(=O)cc3)cc2)C(=O)O1 (racemic) [Compound 24, (±)-N[[3-[4-[4-(1-methylethoxy)-5-oxo-1,3,6-cycloheptatrien-1-yl]phenyl]-2-oxo-5-oxazolidinyl]methyl]-acetamide]	–	–
2 µg/mL (≈ 5.44 µM)	0.25 µg/mL (≈ 0.68 µM)	CNc1ccc(-c2ccc(N3CC(CNC(C)=O)OC3=O)cc2)ccc1=O (racemic) [Compound 31, (±)-N-[[3-[4-(4-methylamino--5-oxo1,3,6-cyclopheptatrien1-yl)phenyl]2-oxo-5-oxazolidinyl]methyl]-acetamide]	–	–
32 µg/mL (≈ 78.9 µM)	4 µg/mL (≈ 9.87 µM)	CC(=O)NCC1CN(c2ccc(-c3ccc(N4CC=CC4)c(=O)cc3)cc2)C(=O)O1 (racemic) [Compound 32, (±)-N-[[3-[4-[4-(2,5dihydro-1H--pyrrol-1-yl)-5-oxo-1,3,6-cycloheptatrien-1-yl]phenyl]-2-oxo-5-oxazolidinyl]methyl]-acetamide]	–	–
1 µg/mL (≈ 2.71 µM)	–	COc1ccc(-c2ccc(N3C[C@H](CNC(C)=O)OC3=O)cc2)ccc1=O [Compound 28, (S)-N-[[3-[4-methoxy-5-oxo-1,3,6-cycloheptatrien-yl)phenyl-2-oxo-5-oxazolidinyl)methyl]-acetamide]	–	–
